This is an account of results in patent publication US20240316008A1, “TREATMENT OF SYSTEMIC IMMUNE ACTIVATION SYNDROMES” (TRANQUIS THERAPEUTICS, INC., priority 2020, published 2024).

The structures appear in SMILES notation.

Assay [1] concerns IL-6. The experiment in a line: LPS-stimulated IL-6 secretion from human PBMC (ELISA). Type of assay: cell-based. The settings on record: human PBMC from a first donor, 1 ng/ml LPS, 24h. The method, then:
Briefly, 20,000 human PBMC were aliquoted into each well. LPS was added at 1 ng/ml and the cells incubated for 24h in the presence of LPS and TQS-168 or one of its metabolites. Readouts were human IL-6 ELISA and human TNFα ELISA. For assay, supernatants were diluted in culture medium. The supernatant dilution for the IL-6 ELISA was 1:8, and 1:2 for the human TNFα ELISA.

Assay [2] relates to 12 human primary cell-based systems. In words: Eurofins BioMAP Diversity PLUS panel. The source says:
TQS-168 was characterized in the Eurofins BioMAP Diversity PLUS panel of 12 human primary cell-based systems (FIG. 12). These systems are designed to model complex human tissue and disease biology of the vasculature, skin (fibrosis), pulmonary and immune systems and provide test agent characterization in an unbiased way across a broad set of systems modeling various human disease states. Quantitative measurements of biomarker activities across this broad panel, along with comparative analysis of the biological activities of known bioactive agents in the BioMAP reference database were used to predict the safety, efficacy and function of TQS-168. A BioMAP profile in the Diversity PLUS Panel was performed for TQS-168 at concentrations of 20 μM, 6.7 μM, 2.2 μM, and 740 nM. The Y-axis represents a log-transformed ratio of the biomarker readouts for the test agent-treated sample (n=1) over vehicle controls (average of ≥6 vehicle controls from the same plate). The grey region around the Y-axis represents the 95% significance envelope that was generated from the upper and lower bound values of historical vehicle controls. Biomarker activities were annotated when two or more consecutive concentrations change in the same direction relative to vehicle controls, were outside of the significance envelope, and have at least one concentration with an effect size >20% (|log10 ratio|>0.1). Biomarker key activities were described as modulated if these activities increase in some systems, but decreased in others.

Assay [3] concerns IL-6. In words: Spontaneous IL-6 release of PBMCs from an ALS patient (ELISA). Format: cell-based, human. The note with it: 1 μM, 24 hours, no LPS, versus medium only. The procedure: PBMCs from an ALS patient were used for this study. Whole blood samples were collected from the patient and processed for PBMC isolation with Ficoll gradient method. PBMC samples were stored in liquid nitrogen at […] for subsequent analysis of IL-6 production.
Frozen PBMC samples were thawed and rested at 37° C. […] Therefore PBMC stimulation by LPS was not required to evaluate the effects of TQS-168 and metabolite TQS-621 on IL-6 production. PBMC samples (5×10^5 cells per well) were incubated with medium only, TQS-168 (1 μM) or TQS-621 (1 μM). After 24 hours, supernatants were collected for quantification of IL-6 levels by ELISA.
For orientation: An ELISA detects its analyte on a solid surface through an enzyme-linked reagent.

A further assay deals with Ppargc1α mRNA. The experiment in a line: Ppargc1α mRNA expression in BV2 cells (rt-PCR). Type of assay: cell-based, murine. The settings on record: concentrations ranging from 0.7 μM to 20 μM, normalized to beta-actin mRNA. An excerpt: RNA was processed for real-time PCR.
In another assay the test system is sepsis. The experiment in a line: Mouse model of sepsis / hyperinflammation (virus followed by LPS, as described in Wang). The note with it: mice, intravenous, various doses.
For assay [4], the system named is IL-6. The experiment in a line: IL-6 secretion from LPS-stimulated BV2 cells (CBA assay). Type of assay: cell-based, murine. The settings on record: 100 ng/ml LPS, 1 μM-20 μM, 24 hours. The procedure: LPS was used to induce cytokine secretion from BV-2 cells. Cells were incubated with TQS-168 at various concentrations to assess whether TQS-168 could suppress the LPS-promoted release of various cytokines from in vitro cell cultures. Cytokine secretion was measured by cytometric bead array (CBA) fluorescence-activated cell sorting (FACS). Briefly, a vial of BV2 frozen stock (1 million cells per ml in complete medium) was thawed into 10 mL of complete medium per vial for a total of 4 vials. The vials were then centrifuged at 1800 rpm for 3 minutes to wash away freezing media. The four vials were then pooled into 25 mL of complete medium. TQS-168 was prepared in DMSO. Cells were incubated for 24 hours in the presence of medium (negative control), LPS (positive control), DMSO+LPS (positive control, controlling additionally for presence of DMSO in the TQS-168 stock solution), or LPS+TQS-168 at final concentrations of 1 μM, 5 μM, 10 μM, and 20 μM. After the well plates were incubated overnight for 24 hours, they were centrifuged at 1800 rpm for 5 minutes. Next, 150 μl from each well was transferred to a new set of plates, of which 50 μl was used for CBA. The plates were then centrifuged with the cells, followed by addition of 100 μl of DAPI (50 ml of PBS+10 μl of DAPI stock at 1:5000 dilution). […]

The test system of a further assay is TNF-α. In words: LPS-induced TNF-α production of human PBMC (CBA assay). Type of assay: cell-based. The note with it: 100 ng/ml LPS, 24 hours, compared to no treatment. The procedure:
Peripheral blood mononuclear cells (PBMC) from 4 different healthy volunteers were used in this study. Fresh blood samples were collected at Stanford Blood Center and processed for PBMC isolation with Ficoll gradient. PBMC samples were stored in liquid nitrogen at […] for subsequent analysis of TNF-α production. For TNF-α stimulation, frozen PBMC samples were thawed and rested at 37° C. before cells were stimulated with 100 ng/ml of LPS for 24 hours. DMSO (1:1000 final dilution) or TQS-168 in DMSO (1:1000 final dilution) at various concentrations was added to cell cultures of LPS-stimulated PBMC to evaluate the effects of T-168 on TNF-α production of human primary myeloid cells. After 24 hours stimulation, supernatant samples from various conditions were collected and TNF-α concentrations in the supernatants analyzed with cytometric bead array (CBA) assay per protocols from BD Biosciences. TNF-α was quantified by median fluorescent intensity reading (MFI). Samples were analyzed directly after staining with LSRII flow cytometer.

[5] abbreviates: profile at 20 μM, 6.7 μM, 2.2 μM, 740 nM.

Method for sepsis: Briefly, mice are anesthetized with a ketamine/xylazine mixture. A virus, such as a coronavirus, influenza virus, rhinovirus, respiratory syncytial virus, metapneumovirus, adenovirus, or a boca virus, is administered. The virus may be administered intranasally dropwise.
Next, LPS diluted in a buffer, such as PBS, is injected intraperitoneally at specific doses.
To provide comparators for assessing the effects of TQS-168 and its analogs, groups of positive control mice are treated with one or more antibodies against pro-inflammatory cytokines of interest: anti-NK1.1 antibody (PK136; Bio X Cell) diluted in PBS is injected at 100 μg per injection (100 μL) retro-orbitally concurrently with each challenge; anti-IFNγ antibody (XMG1.2, Bio X Cell) is diluted in PBS and injected at 500 μg per injection (100 μL) retro-orbitally concurrently with each challenge; anti-IL6R (15A7.10 mg/kg; Bio X Cell), anti-TNFα (XT3.11, 500 μg per injection; Bio X Cell), anti-IFNαR (MAR1-5A3, 10 mg/kg; Bio X Cell), and anti-IL1β (B122, 500 μg per injection; Bio X Cell) are injected retro-orbitally. For a negative control, isotype antibody is injected retro-orbitally.
The pro-inflammatory cytokines can be measured using the ELISA assay described in Example 1.

As to `CC(C)(C)c1ccc(-c2nc3ccccc3[nH]2)cc1` [TQS-168, 2-(4-tert-butylphenyl)-1H-benzimidazole], the “LPS-stimulated IL-6 secretion from PBMCs” value in the assay on IL-6 [1] is “inhibition”. In assay [2] (6.7 μM), the “T-cell proliferation, IgG, TNFα, and IL-8” value is listed as “inhibit”; the “decrease in sIgG and sTNFα in B and T cells as compared to metformin hydrochloride at 5000 μM” value is reported as “greater decrease”. Besides, the “decrease in sIgG, sIL-17A, sIL-17F, sIL-2, sTNFα, sIL-6 from B and T cells” value in assay [2] (20 μM, highest concentration of the profile) was “greatest decrease”. In assay [2] (setting [5]), the “inflammatory markers Eotaxin-3, P-selectin, IL-8, PGE2, IP-10” value is “decreased”; the “proliferation of endothelial, B cells, T cells, coronary artery SMC & fibroblasts” value was “anti-proliferative”; the “tissue remodeling markers uPAR, MMP1, tPA, alpha-SMA, Collagen III” value is listed as “modulated”. Besides, in the assay with IL-6 [3], the “spontaneous release of IL-6 (amount of IL-6 produced)” value is “reduction”. Moreover, the “Ppargc1α mRNA expression” value in the assay with Ppargc1α mRNA was “induces”. Besides, in the assay on sepsis, the “circulating concentrations of pro-inflammatory cytokines” value is “effective in reducing” and the hyperinflammatory symptoms entry was “effective in reducing”. Also, in the assay with IL-6 [4], the “LPS-induced secretion of IL-6” value is on record as “reduce”. For the same compound, the “suppression of TNFα production” value in the assay on TNF-α (5 μM) is “statistically significant suppression”. Besides, the “suppression of TNFα production” value in the assay with TNF-α (20 μM) is “statistically significant suppression”.
